This passage reports relative osteocalcin secretion results from US20240261354A1, “METHODS FOR IMPROVING BONE QUALITY AND PROMOTING CARTILAGE DIFFERENTIATION BY CHRYSOPHYLLUM CAINITO EXTRACT AND MANUFACTURING METHOD THEREOF” (TCI CO., LTD., priority 2023, published 2024).

The structures appear in SMILES notation.

This assay deals with OP9 cells. Nature of the assay: Test of myricetin promoting osteocalcin secretion. The class given is cell-based, Murine. As to conditions: 0.03125 mg/mL in differentiation culture medium, 7 days; blank group taken as 100%; ELISA of supernatant. From the text: Experimental cell line: Murine bone marrow stromal cells (hereinafter referred to as OP9 cells) were used, and the OP9 cells were purchased from OP9 cell lines (ATCC CRL-2749™) from the American Type Culture Collection (ATCC®). Cell culture medium: It included […] (Minimum Essential Medium Alpha Medium, purchased from Gibco, product number: Cat. 12000-022), 20% of Fetal Bovine Serum (purchased from Gibco, Cat. 10437-028), and 1% of Penicillin-streptomycin (purchased from Gibco, Cat. 15240-062). Differentiation culture medium: It included 90% of DMEM (Dulbecco's modified Eagle's medium, purchased from Gibco, Cat. 12100-038) added with additional ingredients to make it include 10% of FBS (fetal bovine Serum, purchased from Gibco, 10438-026) and 1% of penicillin-streptomycin (purchased from Gibco, Cat. 15140122), 50 μM of ascorbic acid (purchased from Sigma), 10^−7 M of dexamethasome (purchased from Sigma), and 10 mM of β-glycerol (purchased from Sigma). ELISA Kit for Osteocalcin (OC): Brand: USCN; model: SEA471Mu. Flow cytometer: Purchased from BD Pharmingen Company, model: BDTM Accuri C6 Plus. […] The content of osteocalcin in the supernatant to be detected in each well was measured by the […] to promote osteocalcin secretion analysis. […]
(In general: In an ELISA, binding on a coated surface is turned into a signal by an enzyme label.)

`O=c1c(O)c(-c2cc(O)c(O)c(O)c2)oc2cc(O)cc(O)c12` [myricetin]: the relative osteocalcin secretion is listed as 121.39%.
